Results: patent US20070249988A1, “Electrotransport Delivery of Nesiritide” (ALZA CORPORATION, priority 2006, published 2007)

What was measured:
hairless guinea pigs = experiment: Skin irritation after electrotransport administration; format: in vivo
Protocol: Nesiritide was administered to hairless guinea pigs, and the guinea pigs were monitored for skin irritation.

[1] = Isocratic hydrophobic interaction chromatography (HIC); format: physicochemical
Protocol: Nesiritide was analyzed by isocratic hydrophobic interaction chromatography (HIC) using the conditions set forth in the table below to estimate the peptide's hydrophobicity.

[2] = Stability under donor conditions (buffer, RP-HPLC); format: physicochemical
Protocol: The stability of nesiritide at 32° C. under both donor and receptor conditions was evaluated.
(§1) The peptide was incubated in various buffer systems, both with and without human epidermis, at concentrations to be used for donor solutions. Experiments were conducted at 32° C. for 8 hours and 24 hours. The solutions were separated into portions and analyzed by RP-HPLC using the conditions described in the table below, both directly and after dilution to give a concentration of nesiritide at ˜100 μg/mL. In some cases, donor solutions were also removed and analyzed following ET Flux experiments.

[3] = Stability on exposure to human epidermis; format: in vitro ADME
Protocol: as §1

[4] = Sedimentation equilibrium analytical ultracentrifugation (XLA), self-association; format: physicochemical; set-up: M(1 − vbar * p) observed: unit not given beside the values; details: for Residual Pattern / M(1 − vbar * p) observed: 10 mM ionic; for M(1 − vbar * p) observed: 32° C., 44,000 rpm
Protocol: Nesiritide's tendency towards self-association was assessed using sedimentation equilibrium analytical ultracentrifugation (XLA). An increase in the concentration of peptide in the donor formulation usually is expected to produce an increase in the rate of transport. With many peptides, raising the peptide concentration in solution will also heighten any tendency toward self-association. The conditions of the donor formulation are selected to maximize delivery and minimize aggregation. The development of peptide aggregates in solution can be determined directly by analytical ultracentrifugation. The sensitivity of detection requires at least 5% of the peptide exist as an aggregate.
Solutions of nesiritide at pH 6 and 7, (10 mM ionic imidazole) and pH 8 (10 mM ionic serinamide) were analyzed by sedimentation equilibrium ultracentrifugation. Samples were centrifuged to equilibrium at 44,000 rpm at 32° C., overnight. Absorbance as a function of radial position was determined at 258 nm.
When a highly charged peptide, such as nesiritide at pH 7, is formulated in a low ionic strength buffer, it will behave in a nonideal manner. Under such conditions, the apparent buoyant molecular weight will be lowered because of charge-charge repulsion. Theory has not been developed to estimate the magnitude of this effect when the bulk of the solution ionic strength arises from the peptide and its counter ions (as opposed to the case where the buffer ions contribute the majority of the ionic strength). The calculated value for M(1−vbar*ρ), given in the table below, was based on the behavior expected under ideal conditions.

[5] = Circular dichroic spectrometry (CD), secondary structure; format: physicochemical
Protocol: Circular dichroic spectrometry was used to assess the amount of secondary structure present in nesiritide under aqueous, low ionic strength conditions. In addition, changes in the value calculated for mean residual ellipticity were analyzed to determine if secondary structure, specifically α-helix, could be induced upon the addition of 2,2,2-trifluoroethanol (TFE) or high salt, or both, to nesiritide in aqueous solution at 0.8 mg/mL.
Several methods have been used to estimate the secondary structural components of proteins from the CD spectra. The techniques have been applied to peptide spectra with varying degrees of success (Sreerama, N., Woody, R. W. A Self-Consistent method for the Analysis of Protein Secondary Structure from Circular Dichroism, Analytical Biochemistry, 1993; 209 32-44; Yang, J. T. et al. Separation and Analysis of Peptides and Proteins, Methods Enzymology, 1986; 130 208-269). Computer programs were used to analyze the data from CD scans. Mean residue ellipticity ([θ]nm) was computed at each wavelength and compared to reference spectra to estimate the relative amounts of helix, sheet, turn and aperiodic secondary structure.
The secondary structure assumed by nesiritide in an aqueous environment and induced by the addition of TFE, NaCl or both, were analyzed by CD. The peptide was studied at both 32 and 20° C. The peptide was studied at two concentrations: 0.2 mg/mL (20° C.) to allow data to be obtained at wavelengths below 200 nm, and at 0.8 mg/mL (32° C.) to increase any tendency toward self association. The CD ellipticity values at 222 nm have been interpreted to best reflect the amount of α-helix. The fully helical peptide or protein would have [θ]222nm of −32,000° cm^2, while the peptide lacking secondary structure would have a value of ˜2400° cm^2.
The use of the lower concentration, with a 2 mm path, allowed data to be collected down to 197 nm. The difference spectrum (FIG. 1B) was resolved into component gaussian bands (Holladay, L. A., Savage, C. R., Cohen, S., Puett, D. Biochemistry, 1976; 15 2624-2633; Holladay, L. A., Hammonds, R. G., Jr., Puett, D. Biochemistry, 1974; 13 1653-1661) in order to estimate the amount of α-helix and β-sheet formed. Estimates of secondary structure were made by computing the ratio of the observed rotational strength (R cgs) with those for poly-L lysine in either the α-helical or β-sheet form. The table below gives the parameters of the resolved gaussians, and the estimates of secondary structure. Nesiritide in 40% TFE probably exists as a mixture of conformers.

[6] = 3 mg/mL (~1 mM), pH 6 (imidazole)
[7] = 3 mg/mL (~1 mM), pH 7 (imidazole)
[8] = 3 mg/mL (~1 mM), pH 8 (serinamide)
[9] = 10 mg/mL (~3 mM), pH 7 (imidazole)
[10] = 40% TFE difference spectrum, 0.2 mg/mL, 20° C., pH 7, 10 mM ionic cacodylate, 2 mm path

CC[C@H](C)[C@@H]1NC(=O)[C@H](CCCNC(=N)N)NC(=O)[C@H](CC(=O)O)NC(=O)[C@H](CCSC)NC(=O)[C@H](CCCCN)NC(=O)[C@H](CCCNC(=N)N)NC(=O)CNC(=O)[C@H](Cc2ccccc2)NC(=O)[C@@H](NC(=O)CNC(=O)[C@H](CO)NC(=O)CNC(=O)[C@H](CCC(N)=O)NC(=O)[C@@H](NC(=O)[C@H](CCSC)NC(=O)[C@H](CCCCN)NC(=O)[C@@H]2CCCN2C(=O)[C@@H](N)CO)C(C)C)CSSC[C@@H](C(=O)N[C@@H](CCCCN)C(=O)N[C@H](C(=O)N[C@@H](CC(C)C)C(=O)N[C@@H](CCCNC(=N)N)C(=O)N[C@@H](CCCNC(=N)N)C(=O)N[C@@H](Cc2c[nH]cn2)C(=O)O)C(C)C)NC(=O)CNC(=O)[C@H](CC(C)C)NC(=O)CNC(=O)[C@H](CO)NC(=O)[C@H](CO)NC(=O)[C@H](CO)NC(=O)[C@H](CO)NC1=O [Nesiritide, nesiritide]
skin irritation (hairless guinea pigs; 0.1 mA/cm^2): mild | skin irritation (hairless guinea pigs; 0.2 mA/cm^2): mild | free energy of adsorption to the HIC column, δΔ Gads ([1]; imidazole at pH 7, 10 mM ionic): 0.46 k J mole^−1 | hydrophilicity by HIC ([1]; pH 7.0 imidazole 10 mM ionic, 32° C.): high measured hydrophilicity | stability ([2]; pH 6, 7 or 8, without human epidermis, 32° C., 8-hour): considerable stability | stability ([2]; pH 6 and 7, 24-hour incubation at 32° C.): remained stable | degradation ([2]; pH 6 or 7, after 24 hours at 32° C.): minimal | stability ([2]; pH 8, 24-hour incubation at 32° C.): considerable loss of nesiritide | peptide degradation or change in disulfide bond in donor solutions ([2]; selected donor solutions following ET flux): no peptide degradation or change in the disulfide bond | resistance to destruction ([3]; following exposure to human epidermis): quite resistant to destruction | stability with added human skin ([3]; pH 7, 24-hour, 32° C., with added human skin): no destruction | Residual Pattern [4, 6]: nonideal | M(1 − vbar * p) observed [4, 6]: 630 | Residual Pattern [4, 7]: flat | M(1 − vbar * p) observed [4, 7]: 644 | Residual Pattern [4, 8]: polydisperse | M(1 − vbar * p) observed [4, 8]: 884 | Residual Pattern [4, 9]: nonideal | M(1 − vbar * p) observed [4, 9]: 703 | self-association ([4]; all conditions tested, by ultracentrifugation): no indication of self-association | association state ([4]; highest concentration analyzed, 3 mM, 10 mg/mL at pH 7 in 10 mM ionic buffer): remained monomeric | [θ]222nm mean residue ellipticity ([5]; 0.8 mg/mL (1 mm path), pH 5.5 unbuffered, in water): −1984 deg cm^2 dmol^−1 | [θ]222nm mean residue ellipticity ([5]; 32° C., 40% or 80% TFE or 1.8 M NaCl): ~3200 ° cm^2 dmol^−1 | % Structure Estimate, α-Helix n → Π* (222 nm) [5, 10]: 6.4% | % Structure Estimate, α-Helix Π → Π* (208 nm) [5, 10]: 5.0% | % Structure Estimate, β-Sheet n → Π* (215 nm) [5, 10]: 5.1%
